Results as given in ChEMBL document CHEMBL1156829 (Proc Natl Acad Sci U S A, 2008).

Tests used:
Plasmodium falciparum [1] = experiment: NOVARTIS: Inhibition of Plasmodium falciparum W2 (drug-resistant) proliferation in erythrocyte-based infection assay; format: functional, organism-based; conditions: Plasmodium falciparum, W2; read-out: EC50
Plasmodium falciparum [2] = experiment: NOVARTIS: Inhibition of Plasmodium falciparum 3D7 (drug-susceptible) proliferation in erythrocyte-based infection assay; format: functional, organism-based; conditions: Plasmodium falciparum, 3D7
[3] = NOVARTIS: Cytotoxicity against human hepatocellular carcinoma cell line (Huh7); format: toxicity, cell-based, Huh-7; conditions: Huh7 cells (hepatocellular carcinoma cell line)

| Structure (SMILES) | EC50 (Plasmodium falciparum [1]) [nM] | EC50 (Plasmodium falciparum [2]) [nM] | CC50 [3] [nM] |
| --- | --- | --- | --- |
| CC(C)(C)CC(C)(C)Nc1c(-c2ccccc2OC(=O)c2ccc(Cl)c(Cl)c2)nc2ccccn12 | 72.3 | 920 | > 10000 |
| COc1ccc(N2C(N)=NC(N)=NC23CCCC3)cc1 | 6350 | 393 | > 100000 |
| O=C(Cn1c(=O)oc2cc(S(=O)(=O)NCc3ccccc3)ccc21)NC1CCCCC1 | > 955 | > 1250 | > 10000 |
| Cc1ccc2nc(-c3ccc(NC(=O)c4ccc(S(=O)(=O)N5CC(C)CC(C)C5)cc4)cc3)sc2c1 (stereo not given) | > 1250 | 1320 | > 10000 |
| Cc1cccc(-n2c(-c3ccccc3)nc3ccc(-c4ccc5nc(-c6ccccc6)n(-c6cccc(C)c6)c(=O)c5c4)cc3c2=O)c1 | > 939 | > 1200 | > 10000 |
| CN1CCCC(CNC(=O)c2cnn(-c3ncc4c(n3)-c3ccccc3SC4)c2C2CC2)C1 (stereo not given) | 1100 | 976 | > 10000 |
| CC1(C)CC(=O)c2cc(-c3ccc(Br)cc3)n(-c3ccccc3F)c2C1 | > 1250 | > 972 | > 10000 |
| Cc1nc2ncccn2c1-c1csc(Nc2ccccn2)n1 | 314 | 189 | > 100000 |
| CC(=O)Oc1cccc(C=c2sc3ncnn3c2=O)c1 | > 989 | > 1250 | > 10000 |
| Cn1nc(C(F)(F)F)c(-c2ccc(F)cc2)c1NC(=O)Nc1ccc(F)cc1 | 254 | 241 | 23600 |
| NC(=O)c1ccc(-n2nnnc2SCc2ccc(Cl)cc2)cc1 | > 12500 | 2830 | > 100000 |
| CCCCC(=O)Nc1ccccc1-c1nnn(CC(=O)Nc2ccc3c(c2)OCCO3)n1 | > 1670 | > 1140 | > 10000 |
| N=c1n(CCN2CCCCC2)c2ccccc2n1CC(O)COc1ccc(Cl)cc1 (stereo not given) | 279 | 521 | 6270 |
| COc1ccc(C=NNc2cc(C)nc(-c3ccccc3)n2)cc1OC | 3300 | 8510 | 48800 |
| O=C(NCCCN1CCOCC1)c1c[nH]c2ccc(S(=O)(=O)N3CCc4ccccc43)cc2c1=O | 1110 | 610 | > 100000 |
| CCN(CC)CCCN(Cc1cc2ccc(OC)cc2[nH]c1=O)C(=S)NCc1ccccc1 | 2410 | 3910 | 25800 |
| C=C(C)[C@@H]1CC=C(CN2C[C@H](NC(=O)c3ccc(OC)cc3OC)C[C@H]2C(=O)OC)CC1 | 409 | 815 | > 10000 |
| Cc1ccc(C#N)c(SCc2nnc(-c3ccc(Cl)cc3)o2)n1 | 108 | > 1250 | > 10000 |
| Cc1sc2sc(-c3ccccc3)c(N)[n+]2c1C | 1630 | 1050 | > 100000 |
| Cc1noc(-c2ccc(O)cc2O)c1-c1ccc2c(c1)OCCCO2 | 209 | 470 | > 10000 |
| CCOC(=O)c1ccc(N2C(=O)c3[nH]nc(C)c3C2c2ccccc2OC)cc1 (stereo not given) | > 655 | 610 | > 10000 |
| CC(=O)Nc1ccc(C2NC(=O)NC3=Nc4ccccc4SC(c4ccccc4)=C32)cc1 (stereo not given) | 689 | 1020 | > 100000 |
| O=C(O)CSc1ccc(C(=O)NC2CCCCNC2=O)cn1 (stereo not given) | 263 | > 1490 | > 10000 |
| COc1ccccc1N1CCN(c2ccc(NC(=O)c3ccc(Br)cc3)cc2C(=O)NCCCN(C)C)CC1 | 117 | > 1250 | 1340 |

| Structure (SMILES) | EC50 (Plasmodium falciparum [1]) [nM] | EC50 (Plasmodium falciparum [2]) [nM] | CC50 [3] [nM] |
| --- | --- | --- | --- |
| COc1cccc(C(=O)NC(c2ccc(Cl)cc2)c2cc(Cl)c3cccnc3c2O)c1 (stereo not given) | 268 | 2310 | > 100000 |
| Cc1ccc2[nH]c(C)c(Br)c(=O)c2c1 | 884 | 1240 | > 100000 |
| Oc1c(CN2CCCCC2)ccc2ccccc12 | 727 | 5630 | > 100000 |
| CC(Cl)=CC[N+]1(CC#Cc2cccc3ccccc23)CCOCC1 | 1000 | 1160 | > 100000 |
| CN1CCc2c(C#N)c(N3CCCC3)nc(N3CCCC3)c2C1 | 4820 | 2120 | > 100000 |
| COc1ccc(C=C2N=C(c3ccc(Cl)cc3)N(c3ccccc3)C2=O)cc1OC | 1990 | > 12500 | > 100000 |
| CN(CCCNc1ccnc2cc(Cl)ccc12)C(=O)c1ccc2c(c1)OCO2 | 214 | 249 | > 10000 |
| C=C[C@H]1CN2CC[C@H]1C[C@H]2[C@H](OC(C)=O)c1ccnc2ccccc12 | 590 | 1460 | > 10000 |
| COC(=O)C(Nc1ccc(Cl)c(Cl)c1)(c1cc(C)c(O)c(C)c1)C(F)(F)F (stereo not given) | > 789 | > 1390 | > 10000 |
| Cc1nc(NC(=N)N)nc2ccccc12 | 858 | 887 | 66400 |
| COc1cc(C(Nc2ccccn2)c2ccc3cccnc3c2O)cc(Br)c1OC (stereo not given) | 219 | 368 | > 35000 |
| CC(C)(C)c1ccc(/C=C/C(=O)NCc2ccco2)cc1 | 639 | 792 | > 10000 |
| N=c1n(CCN2CCCCC2)c2ccccc2n1CC(O)c1ccc(Cl)c(Cl)c1 (stereo not given) | 224 | 52.8 | 12800 |
| CC(C)(C)c1ccc(C=CC(=O)NCc2ccco2)cc1 | 322 | 623 | 1140 |
| COc1cc(/C=C(\C#N)c2nc3ccccc3[nH]2)ccc1OCc1ccccc1Cl | 1670 | > 1250 | > 10000 |
| CC(C)(C)CC(C)(C)c1ccc(O)c(CN2CCN(CCC#N)CC2)c1 | 272 | 1290 | > 100000 |
| CC(C)(C)CC(C)(C)Nc1c(-c2ccccc2OC(=O)C2CCCC2)nc2ccccn12 | 29.9 | 2100 | > 10000 |
| Cc1cccc2cc(CNC34CC5CC(CC(C5)C3)C4)c(N3CCC(N4CCC(O)CC4)CC3)nc12 | 163 | 793 | 4900 |
| Clc1ccc(-c2c[n+](Cc3ccccc3Cl)c3n2CCC3)cc1 | 384 | 784 | > 87000 |
| Cc1ccc(C)c(S(=O)(=O)N=C2C=C(SCC(=O)O)C(=O)c3ccccc32)c1 | 527 | 3600 | 17700 |
| O=C1N=C(N2CCOCC2)S/C1=C/c1cccc2ccccc12 | 329 | > 1250 | > 10000 |
| Clc1ccc(OCc2nc3ccccc3n2CCc2ccccc2)cc1 | 165 | > 720 | > 10000 |
| CC(C)CNc1nc(NCCCn2ccnc2)ncc1C(=O)NCCc1ccccc1 | 696 | 274 | > 10000 |
| C=CCC1(Nc2ccccc2)CCCCC1 | > 1050 | > 1250 | > 10000 |

| Structure (SMILES) | EC50 (Plasmodium falciparum [1]) [nM] | EC50 (Plasmodium falciparum [2]) [nM] | CC50 [3] [nM] |
| --- | --- | --- | --- |
| COc1ccc(N=C2NC(=O)/C(=C\c3ccc(N(C)C)cc3)S2)cc1 | > 1680 | 1020 | > 10000 |
| Oc1ccc(-c2ccc(F)cc2)cc1CNC1CCCCC1 | 6.28 | 40.2 | 17400 |
| COCCOC(=O)C1=C(C)NC2=C(C(=O)CCC2)C1c1ccc(OC)c(OC)c1OC (stereo not given) | 870 | > 6970 | > 100000 |
| Cc1ccc2cc(C)c(Nc3ccc(Cl)cc3)nc2c1 | 570 | 426 | 61000 |
| CCCCCc1ccc(OCCCC[n+]2cccc(C)c2)c(CCCCC)c1 | 336 | 713 | 20500 |
| CCOc1cc2c(cc1OCC)C(c1cc(Cl)ccc1O)NCC2 (stereo not given) | 96.4 | 404 | 24200 |
| CCCCc1ccc(C(=O)Oc2ccccc2-c2nc3cc(C)ccn3c2NC(C)(C)CC(C)(C)C)cc1 | 107 | 616 | > 10000 |
| O=C(CCCn1c(SCc2ccccc2F)nc2ccccc2c1=O)N1CCCC1 | > 1440 | 1060 | > 10000 |
| CCOc1ccc(N2C(=O)C3C4CC(C(Br)C4Br)C3C2=O)cc1 (stereo not given) | 441 | > 12500 | > 72500 |
| CCCCCCOC(=O)C1=C(C)NC(=O)NC1c1ccccc1F (stereo not given) | > 8310 | > 6760 | > 100000 |
| COc1ccccc1CNC(=O)CCn1c(=O)[nH]c2ccccc2c1=O | 133 | 537 | > 10000 |
| CCOC(=O)C(=O)N1c2ccc(C)cc2-c2c(ssc2=S)C1(C)C | 37.7 | 46.5 | > 100000 |
| COc1cccc(CN2CCN(C(c3ccccc3)c3ccccc3)CC2)c1O | 50.4 | 340 | 45200 |
| O=c1c2c([nH]c3cc(Cl)ccc13)CCCC2 | 649 | 333 | > 100000 |
| COC(=O)C1=CNC=C(C(=O)OC)C1c1cc(OC)c(OC)cc1OC | 245 | > 1350 | > 10000 |
| N#Cc1c(N)nc2sc(C(=O)Nc3ccc(Br)cc3)c(N)c2c1-c1ccccc1 | 763 | 8210 | > 100000 |
| CN1C(=O)N(C)C(NNC(N)=S)C1NNC(N)=S (stereo not given) | 6.21 | 8.92 | > 100000 |
| COc1ccc(-n2c(=S)[nH]c3cc(C(=O)Nc4cccc(C)c4)ccc3c2=O)cc1OC | > 1250 | > 1040 | > 10000 |
| CN1CCN(c2cc(-c3cccnc3)nc(-c3ccncc3)n2)CC1 | 656 | 588 | > 9550 |
| CC(C)CN(CC(=O)Nc1cc(C(C)(C)C)nn1-c1ccccc1)C(=O)COc1ccccc1 | 432 | 773 | 17600 |
| CCCOC(=O)C1=C(C)NC2=C(C(=O)CC(c3ccc(OC)c(OC)c3)C2)C1c1cccc(Cl)c1Cl (stereo not given) | 11.9 | 48.4 | > 100000 |
| COc1cc(C2C3=C(CC(C)(C)CC3=O)Nc3ccccc3N2C(=O)C(C)C)cc(OC)c1OC (stereo not given) | 40.7 | > 1250 | > 10000 |
